The subject of assay [1] is CHO-PDL1/Jurkat-PD1 cell pathway. The assay can be described thus: Inhibition of CHO-PDL1/Jurkat-PD1 cell pathway (NFAT luciferase reporter). The settings on record: for EC50: 6 hours incubation, luciferase signal; for maximal fold induction: relative to the signal value of the non-dosed group, read-out: Maximum induction fold. Type of assay: cell-based. The method, then:
Test Embodiment 3. Inhibitory Effect of the Compounds of the Present Disclosure on CHO-PDL1/Jurkat-PD1 Cell Pathway
Experimental purpose: The purpose of this test embodiment was to test the inhibitory effect of compounds on the CHO-PDL1/Jurkat-PD1 cell pathway.
Experimental method: Two stably transfected cell lines were included in this experiment, CHO-K1 cells stably transfected with PD-L1 and Jurkat cells stably transfected with PD-1 and NFAT luciferase reporter genes. Compounds were incubated with the two cell lines. Then, due to the inhibitory effect on the PD-1/PD-L1 pathway, the activation degree of Jurkat cells changed, so that the level of the reporter gene NFAT in the downstream of Jurkat cells changed, and the level of NFAT was characterized by detecting the signal value of luciferase, so that the inhibitory effect of the test compound on CHO-PDL1/Jurkat-PD1 pathway was characterized.
CHO-PDL1 cells (Promega, #J1252) were cultured to a suitable cell density. After digestion, the cells were resuspended by complete medium to become a suitable density of cell suspension. The cell suspension was plated 100 μL per well on a 96-well plate (Corning, #3610), and placed in a 37° C., 5% CO2 incubator and incubated overnight, and assay medium (RPMI 1640+2% FBS, RPMI 1640 Cat. No.: Gibco, #22400089, FBS Cat. No.: Gibco, #10091148) was used to prepare compound solutions of different concentrations. NFAT-luc2/PD1 Jurkat cells (Promega, #J1252) were collected and resuspended to the appropriate cell density using assay medium. The supernatant of the CHO-PDL1 cell culture plate was aspirated, and 40 μL of the prepared compound solution and 40 μL of resuspended NFAT-luc2/PD1 Jurkat cells were added, and incubated in a 5% CO2 incubator at 37° C. for 6 hours, and the cell plate was taken out, then 40 μL of One-Glo reagent (Promega, #E6120) was added to each well, shaked and mixed well, incubated in the dark at room temperature for 10 minutes, then put into a microplate reader and the luminescence program was used to read the luminescence value of the cell plate.
The EC50 value was fitted according to the compound concentration and the luminescence signal value, and the maximum induction fold of each compound relative to the signal value of the non-dosed group was calculated, as shown in Table 3.
(A reporter such as luciferase makes a cellular process visible.)

In another assay the target is T1, human PD-1/PD-L1 binding (Homo sapiens, UniProt Q9NZQ7).
T1 construct: PD-L1-His protein (19 to 238 amino acids) (Abcam #ab167713); purchased Abcam (PD-L1-His); R&D (PD-1-Fc) ab167713; 1086-PD
T1 sequence (Q9NZQ7 19-238): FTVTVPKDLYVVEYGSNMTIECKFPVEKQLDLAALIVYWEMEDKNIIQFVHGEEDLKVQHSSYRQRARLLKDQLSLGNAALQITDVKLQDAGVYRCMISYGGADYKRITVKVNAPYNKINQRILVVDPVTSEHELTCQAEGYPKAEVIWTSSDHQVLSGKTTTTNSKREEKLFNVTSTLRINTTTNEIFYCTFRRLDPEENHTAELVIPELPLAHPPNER
The assay can be described thus: Inhibition of human PD-1/PD-L1 binding (TR-FRET/HTRF). The settings on record: TR-FRET, PD-L1-His and PD-1-Fc; read-out: PD-1/PD-L1 binding IC50. The method, boiled down:
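PD-L1-His (aa 19–238, diluted to 10 nM) and PD-1-Fc (aa 25–167, diluted to 20 nM) incubated with compounds (10 μM or 1 μM top, 3-fold, 11 doses) 60 min at room temperature, then anti-6HIS Eu cryptate/anti-human IgG-XL665 added for 3 h RT or overnight 4 °C. HTRF 665/620 nm ratio gave inhibition and IC50.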
Background: In TR-FRET formats the signal depends on donor and acceptor labels being close together.

Assay [2] concerns the target T2, PD-L1 protein on the surface of MC38-hPDL1 tumor cells (Homo sapiens, UniProt Q9NZQ7).
T2 construct: expressed in transfected cells; host or cells: MC38-hPDL1 (mouse colon cancer cells)
Briefly: Induction of endocytosis of PD-L1 on the surface of tumor cells (flow cytometry). The assay is classed as cell-based. The following applies: 16 hours incubation; for Emax: MC38-hPDL1 cells, read-out: MC38 maximum endocytosis rate; for IC50: inducing endocytosis of PD-L1, MC38-hPDL1 cells, read-out: MC38 IC50. The method, boiled down:
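IC50 comes from nonlinear fits of endocytosis rate, calculated from the loss of surface PE-anti-CD274 flow signal relative to vehicle. Cells were MC38 mouse colon cancer cells engineered to express high human PD-L1. Compound exposure lasted 16 h at 37 °C, 5% CO2.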

The structures appear in SMILES notation.

T2 sequence (Q9NZQ7 19-290): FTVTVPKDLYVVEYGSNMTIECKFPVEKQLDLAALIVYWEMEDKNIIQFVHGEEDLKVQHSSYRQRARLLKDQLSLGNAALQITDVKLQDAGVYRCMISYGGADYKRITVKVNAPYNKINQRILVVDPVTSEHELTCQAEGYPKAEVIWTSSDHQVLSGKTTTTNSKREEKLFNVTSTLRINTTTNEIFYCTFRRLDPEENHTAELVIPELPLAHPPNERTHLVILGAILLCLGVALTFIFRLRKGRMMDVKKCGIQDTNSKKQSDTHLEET

For `COc1cc(-c2cccc(-c3cccc(NC(=O)c4nc5c(n4C)CCN(C)C5)c3Cl)c2C)ncc1CNC[C@@H]1CCC(=O)N1` [Embodiment 58, (S)—N-(2-Chloro-3′-(4-methoxy-5-((((5-carbonylpyrrolidin-2-yl)methyl)amino)methyl)pyridin-2-yl)-2′-methyl-[1,1′-biphenyl]-3-yl)-1,5-dimethyl-4,5,6,7-tetrahydro-1H-imidazo[4,5-c]pyridine-2-carboxamide], in assay [1], a half-maximal response (EC50) required 99 nM and the maximal fold induction is 3.5. Also, the IC50 on human PD-1/PD-L1 binding amounted to 1.5 nM. Also, in assay [2], the Emax is 94% and the IC50 was found to be 5.1 nM.

As to `COc1cc(NCc2cnc(C(=O)Nc3cccc(-c4cccc(NC(=O)c5nc6c(n5C)CCN(CCO)C6)c4Cl)c3C)cc2OC)ccn1` [Embodiment 72, N-(2-Chloro-3′-(4-methoxy-5-(((2-methoxypyridin-4-yl)amino)methyl)picolinamido)-2′-methyl-[1,1′-biphenyl]-3-yl)-5-(2-hydroxyethyl)-1-methyl-4,5,6,7-tetrahydro-1H-imidazo[4,5-c]pyridine-2-carboxamide], in assay [1], the EC50 – broadly, the concentration needed to bring the measured effect to its halfway point – was 73 nM and the maximal fold induction was 3.1. Moreover, in assay [2], the Emax is 88% and the IC50 was determined as 6.5 nM.

For the molecule `COc1nc(-c2cccc(-c3cccc(NC(=O)c4nc5c(n4C4CC4)CCN(C)C5)c3Cl)c2Cl)ccc1CN1CC2(C1)CN(C(C)=O)C2` [Embodiment 243, N-(3′-(5-((6-Acetyl-2,6-diazaspiro[3.3]heptan-2-yl)methyl)-6-methoxypyridin-2-yl)-2,2′-dichloro-[1,1′-biphenyl]-3-yl)-1-cyclopropyl-5-methyl-4,5,6,7-tetrahydro-1H-imidazo[4,5-c]pyridine-2-carboxamide], in assay [1], the EC50 worked out at 74 nM and the maximal fold induction was found to be 3.1. In addition, the IC50 on human PD-1/PD-L1 binding is 8.4 nM. In addition, the Emax in assay [2] turned out to be 91%.

On to `COc1cc(C(=O)Nc2cccc(-c3cccc(NC(=O)c4nc5c(n4C)CCN(C)C5)c3Cl)c2C)ncc1CN1CC[C@H](F)C1` [Embodiment 26, (S)—N-(2-Chloro-3′-(5-((3-fluoropyrrolidin-1-yl)methyl)-4-methoxypicolinamido)-2′-methyl-[1,1′-biphenyl]-3-yl)-1,5-dimethyl-4,5,6,7-tetrahydro-1H-imidazo[4,5-c]pyridine-2-carboxamide], for which, in assay [1], the EC50 came to 90 nM and the maximal fold induction amounted to 3.9.

Turning to `CCN1CCc2c(nc(C(=O)Nc3cccc(-c4cccc(NC(=O)c5cc(OC)c(CNc6ccnc(C)c6F)cn5)c4C)c3Cl)n2C)C1` [Embodiment 78, N-(2-Chloro-3′-(5-(((3-fluoro-2-methylpyridin-4-yl)amino)methyl)-4-methoxypicolinamido)-2′-methyl-[1,1′-biphenyl]-3-yl)-5-ethyl-1-methyl-4,5,6,7-tetrahydro-1H-imidazo[4,5-c]pyridine-2-carboxamide], in assay [1], the midpoint of the response, the EC50, lay at 68 nM and the maximal fold induction worked out at 2.8.

`COc1cc(C(=O)Nc2cccc(-c3cccc(NC(=O)c4nc5c(n4C)CCN(C)C5)c3Cl)c2C)ncc1CNCCO` [Embodiment 37, N-(2-Chloro-3′-(5-(((2-hydroxyethyl)amino)methyl)-4-methoxypicolinamido)-2′-methyl-[1,1′-biphenyl]-3-yl)-1,5-dimethyl-4,5,6,7-tetrahydro-1H-imidazo[4,5-c]pyridine-2-carboxamide]: in assay [1], the EC50 amounted to 63 nM and the maximal fold induction is 4.8. At human PD-1/PD-L1 binding, the IC50 amounted to 1.5 nM. Further, in assay [2], the Emax turned out to be 97% and the IC50 is 0.6 nM.

On to `COc1cc(C(=O)Nc2cccc(-c3cccc(NC(=O)c4nc5c(n4C)CCN(C)C5)c3Cl)c2C)ncc1CNc1ccnc(C)c1F` [Embodiment 6, N-(2-Chloro-3′-(5-(((3-fluoro-2-methylpyridin-4-yl)amino)methyl)-4-methoxypicolinamido)-2′-methyl-[1,1′-biphenyl]-3-yl)-1,5-dimethyl-4,5,6,7-tetrahydro-1H-imidazo[4,5-c]pyridine-2-carboxamide], for which, in assay [1], the 50% effective concentration (EC50) was determined as 60 nM and the maximal fold induction came to 3.3. In assay [2], the Emax came to 93% and the IC50 was 1.1 nM.
